In PubChem BioAssay AID1963427 (Molecular Pharmacology Branch, DTP, NCI, 2024):

Tested on: 317291-083-R-J1-PDC complex spheroid growth
Test: Anticancer human tumor 317291-083-R-J1-PDC patient-derived soft tissue sarcoma cell line growth inhibition [Asc]
Settings: for IC50: curve of first compound; for viability, T/C: stronger effect = lower value
Outline: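 Spheroid model: tumor line + HUVEC + hMSC. Single agents and combinations; top conc. at/near clinical Cmax (10 microM if undetermined), half-log dilutions. DMSO stocks at 800-fold test concentration.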
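Also: compound exposure lasted seven days after spheroids formed for three days.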
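For viability, T/C in this document: 100% = DMSO vehicle control wells.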

NC(=O)C(=Cn1cnc(-c2cc(C(F)(F)F)cc(C(F)(F)F)c2)n1)c1cncnc1 + CNC(C)C(=O)NC1CN(S(=O)(=O)c2cccc(S(=O)(=O)N3CCC4CCC(C(=O)NC(c5ccccc5)c5ccccc5)N4C(=O)C(NC(=O)C(C)NC)C3)c2)CCC2CCC(C(=O)NC(c3ccccc3)c3ccccc3)N2C1=O
IC50 (second compound 0.00316 µM): 10.4 nM | IC50 (second compound 0.01 µM): 17.5 nM | IC50 (second compound 0.0316 µM): 20.6 nM | IC50 (second compound 0.1 µM): 8.13 nM | IC50 (second compound 0.316 µM): 12.4 nM | IC50 (second compound 1 µM): 2.22 nM | viability, T/C (second compound 0.00316 µM, first compound 0.000949 µM): 75.5% | viability, T/C (second compound 0.00316 µM, first compound 0.003 µM): 72.6% | viability, T/C (second compound 0.00316 µM, first compound 0.00949 µM): 47.7% | viability, T/C (second compound 0.00316 µM, first compound 0.03 µM): 32.1% | viability, T/C (second compound 0.00316 µM, first compound 0.0949 µM): 5.77% | viability, T/C (second compound 0.00316 µM, first compound 0.3 µM): 2.39% | viability, T/C (second compound 0.01 µM, first compound 0.000949 µM): 105% | viability, T/C (second compound 0.01 µM, first compound 0.003 µM): 96.1% | viability, T/C (second compound 0.01 µM, first compound 0.00949 µM): 74.5% | viability, T/C (second compound 0.01 µM, first compound 0.03 µM): 29.3% | viability, T/C (second compound 0.01 µM, first compound 0.0949 µM): 4.51% | viability, T/C (second compound 0.01 µM, first compound 0.3 µM): 2.62% | viability, T/C (second compound 0.0316 µM, first compound 0.000949 µM): 101% | viability, T/C (second compound 0.0316 µM, first compound 0.003 µM): 92.5% | viability, T/C (second compound 0.0316 µM, first compound 0.00949 µM): 75.6% | viability, T/C (second compound 0.0316 µM, first compound 0.03 µM): 39.5% | viability, T/C (second compound 0.0316 µM, first compound 0.0949 µM): 4.33% | viability, T/C (second compound 0.0316 µM, first compound 0.3 µM): 1.8% | viability, T/C (second compound 0.1 µM, first compound 0.000949 µM): 74.4% | viability, T/C (second compound 0.1 µM, first compound 0.003 µM): 73% | viability, T/C (second compound 0.1 µM, first compound 0.00949 µM): 45.3% | viability, T/C (second compound 0.1 µM, first compound 0.03 µM): 16.6% | viability, T/C (second compound 0.1 µM, first compound 0.0949 µM): 3.12% | viability, T/C (second compound 0.1 µM, first compound 0.3 µM): 1.09% | viability, T/C (second compound 0.316 µM, first compound 0.000949 µM): 63.2% | viability, T/C (second compound 0.316 µM, first compound 0.003 µM): 68.2% | viability, T/C (second compound 0.316 µM, first compound 0.00949 µM): 60.1% | viability, T/C (second compound 0.316 µM, first compound 0.03 µM): 16.1% | viability, T/C (second compound 0.316 µM, first compound 0.0949 µM): 1.31% | viability, T/C (second compound 0.316 µM, first compound 0.3 µM): 2.22% | viability, T/C (second compound 1 µM, first compound 0.000949 µM): 67.3% | viability, T/C (second compound 1 µM, first compound 0.003 µM): 38.9% | viability, T/C (second compound 1 µM, first compound 0.00949 µM): 34.8% | viability, T/C (second compound 1 µM, first compound 0.03 µM): 12.6% | viability, T/C (second compound 1 µM, first compound 0.0949 µM): 2.47% | viability, T/C (second compound 1 µM, first compound 0.3 µM): 1.44%

NC1CCC(NC2CC2c2ccccc2)CC1 (centres undefined) + CNC(C)C(=O)NC1CN(S(=O)(=O)c2cccc(S(=O)(=O)N3CCC4CCC(C(=O)NC(c5ccccc5)c5ccccc5)N4C(=O)C(NC(=O)C(C)NC)C3)c2)CCC2CCC(C(=O)NC(c3ccccc3)c3ccccc3)N2C1=O
IC50 (second compound 0.00316 µM): > 100 nM | IC50 (second compound 0.01 µM): > 100 nM | IC50 (second compound 0.0316 µM): > 100 nM | IC50 (second compound 0.1 µM): > 100 nM | IC50 (second compound 0.316 µM): < 0.316 nM | IC50 (second compound 1 µM): < 0.316 nM | viability, T/C (second compound 0.00316 µM, first compound 0.000316 µM): 83.2% | viability, T/C (second compound 0.00316 µM, first compound 0.001 µM): 88.8% | viability, T/C (second compound 0.00316 µM, first compound 0.00316 µM): 84.5% | viability, T/C (second compound 0.00316 µM, first compound 0.01 µM): 96% | viability, T/C (second compound 0.00316 µM, first compound 0.0316 µM): 80.5% | viability, T/C (second compound 0.00316 µM, first compound 0.1 µM): 74.5% | viability, T/C (second compound 0.01 µM, first compound 0.000316 µM): 93% | viability, T/C (second compound 0.01 µM, first compound 0.001 µM): 80.6% | viability, T/C (second compound 0.01 µM, first compound 0.00316 µM): 86.9% | viability, T/C (second compound 0.01 µM, first compound 0.01 µM): 93.7% | viability, T/C (second compound 0.01 µM, first compound 0.0316 µM): 82.3% | viability, T/C (second compound 0.01 µM, first compound 0.1 µM): 76.7% | viability, T/C (second compound 0.0316 µM, first compound 0.000316 µM): 102% | viability, T/C (second compound 0.0316 µM, first compound 0.001 µM): 73.7% | viability, T/C (second compound 0.0316 µM, first compound 0.00316 µM): 77% | viability, T/C (second compound 0.0316 µM, first compound 0.01 µM): 70.1% | viability, T/C (second compound 0.0316 µM, first compound 0.0316 µM): 89.5% | viability, T/C (second compound 0.0316 µM, first compound 0.1 µM): 57.4% | viability, T/C (second compound 0.1 µM, first compound 0.000316 µM): 67.5% | viability, T/C (second compound 0.1 µM, first compound 0.001 µM): 52% | viability, T/C (second compound 0.1 µM, first compound 0.00316 µM): 69.1% | viability, T/C (second compound 0.1 µM, first compound 0.01 µM): 49% | viability, T/C (second compound 0.1 µM, first compound 0.0316 µM): 69.3% | viability, T/C (second compound 0.1 µM, first compound 0.1 µM): 64.7% | viability, T/C (second compound 0.316 µM, first compound 0.000316 µM): 43.2% | viability, T/C (second compound 0.316 µM, first compound 0.001 µM): 56.5% | viability, T/C (second compound 0.316 µM, first compound 0.00316 µM): 48% | viability, T/C (second compound 0.316 µM, first compound 0.01 µM): 54% | viability, T/C (second compound 0.316 µM, first compound 0.0316 µM): 61.9% | viability, T/C (second compound 0.316 µM, first compound 0.1 µM): 44% | viability, T/C (second compound 1 µM, first compound 0.000316 µM): 37.5% | viability, T/C (second compound 1 µM, first compound 0.001 µM): 39.7% | viability, T/C (second compound 1 µM, first compound 0.00316 µM): 34.5% | viability, T/C (second compound 1 µM, first compound 0.01 µM): 36.8% | viability, T/C (second compound 1 µM, first compound 0.0316 µM): 46.1% | viability, T/C (second compound 1 µM, first compound 0.1 µM): 36.8%
